Measured values: patent publication EP4722207A1, “OXOISOINDOLINYL-SUBSTITUTED TETRAHYDROPYRIMIDINEDIONE DERIVATIVE AND USE THEREOF” (Gluetacs Therapeutics (Shanghai) Co., Ltd., priority 2023, dated 2024)

Key:
Format in all cases: cell-based
Settings in all cases: compounds at 50 nM and 500 nM, 24 hours
WEE1 = molecular target: T1, WEE1 (Homo sapiens, UniProt P30291+Q96SW2); experiment: Western-blot assay, substrate protein degradation in hPBMCs: WEE1
T1 construct: effects of the compounds of the present disclosure on the expression of target proteins in cells; endogenous in cells; host or cells: human PBMCs (hPBMCs)
Description: (§1) Conventional Western blot assay was performed to evaluate the effects of the compounds of the present disclosure on the expression of target proteins in cells. • (1) Cell Seeding and Protein Harvesting: Human peripheral blood mononuclear cells (hPBMCs) at a density of 1x10^6 cells/mL were thawed according to the PBMC Recovery Protocol (Milecell Biotechnologies Inc, Shanghai). […] After 24 hours of compounds treatment, cells were harvested and lysed in RIPA protein lysate containing protease inhibitors on ice for 30 min, followed by centrifugation. The supernatant was aspirated as the extracted total cell protein. The protein concentration of the supernatant was determined using the conventional BCA (Bicinchoninic Acid) assay. • (2) To the collected supernatant, 5X SDS sample loading buffer was added, followed by denaturation at 95°C for 5 minutes. The denatured samples were then separated by SDS-PAGE electrophoresis on a polyacrylamide gel. Proteins were transferred to a nitrocellulose membrane (0.45 µm NC membrane), blocked with blocking buffer at room temperature for 1 hour, and subjected to antibody incubation and development procedures according to the antibody manufacturer's instructions (Cell Signaling Technology).
(§2) Half-Maximal Degradation Concentration value (the drug concentration required for degrading proteins by 50%, abbreviated as DC50) reads method: comparing the grayscale values of Western blot bands from drug-treated samples with those from blank DMSO-treated controls, and identifying the drug concentration range at which the grayscale value is half that of the DMSO-treated control bands.
(§3) DC50 values can be calculated using ImageJ software to measure grayscale values of Western blot bands from drug-treated samples. The concentration-response curve is fitted to estimate the drug concentration corresponding to half the grayscale value.
(§4) Target protein remaining (%) refers to the percentage of target protein remaining in cells after treatment with protein degrader compounds.
(§5) Calculation method for target protein remaining (%): Use ImageJ software to measure grayscale values of Western blot bands from drug (protein degrader)-treated samples. The grayscale value of drug-treated bands is divided by that of internal control protein bands, and the resulting quotient is normalized to obtain the relative percentage of remaining target protein after protein degrader treatment. Target protein degradation rate(%) = 1−target protein remaining(%). [formula]

IKZF1 = molecular target: T2, IKZF1 (Homo sapiens, UniProt Q13422+Q96SW2); experiment: Western-blot assay, substrate protein degradation in hPBMCs: IKZF1
T2 construct: effects of the compounds of the present disclosure on the expression of target proteins in cells; endogenous in cells; host or cells: human PBMCs (hPBMCs)
Description: as §1, §2, §3, §4, §5

IKZF2 = molecular target: T3, IKZF2 (Homo sapiens, UniProt Q96SW2+Q9UKS7); experiment: Western-blot assay, substrate protein degradation in hPBMCs: IKZF2
T3 construct: effects of the compounds of the present disclosure on the expression of target proteins in cells; endogenous in cells; host or cells: human PBMCs (hPBMCs)
Description: as §1, §2, §3, §4, §5

IKZF3 = molecular target: T4, IKZF3 (Homo sapiens, UniProt Q96SW2+Q9UKT9); experiment: Western-blot assay, substrate protein degradation in hPBMCs: IKZF3
T4 construct: effects of the compounds of the present disclosure on the expression of target proteins in cells; endogenous in cells; host or cells: human PBMCs (hPBMCs)
Description: as §1, §2, §3, §4, §5

CK1α = molecular target: T5, CK1α (Homo sapiens, UniProt P48729+Q96SW2); experiment: Western-blot assay, substrate protein degradation in hPBMCs: CK1α
T5 construct: effects of the compounds of the present disclosure on the expression of target proteins in cells; endogenous in cells; host or cells: human PBMCs (hPBMCs)
Description: as §1, §2, §3, §4, §5

GSPT1 = molecular target: T6, GSPT1 (Homo sapiens, UniProt P15170+Q96SW2); experiment: Western-blot assay, substrate protein degradation in hPBMCs: GSPT1
T6 construct: effects of the compounds of the present disclosure on the expression of target proteins in cells; endogenous in cells; host or cells: human PBMCs (hPBMCs)
Description: as §1, §2, §3, §4, §5

T6 sequence (P15170 whole entry): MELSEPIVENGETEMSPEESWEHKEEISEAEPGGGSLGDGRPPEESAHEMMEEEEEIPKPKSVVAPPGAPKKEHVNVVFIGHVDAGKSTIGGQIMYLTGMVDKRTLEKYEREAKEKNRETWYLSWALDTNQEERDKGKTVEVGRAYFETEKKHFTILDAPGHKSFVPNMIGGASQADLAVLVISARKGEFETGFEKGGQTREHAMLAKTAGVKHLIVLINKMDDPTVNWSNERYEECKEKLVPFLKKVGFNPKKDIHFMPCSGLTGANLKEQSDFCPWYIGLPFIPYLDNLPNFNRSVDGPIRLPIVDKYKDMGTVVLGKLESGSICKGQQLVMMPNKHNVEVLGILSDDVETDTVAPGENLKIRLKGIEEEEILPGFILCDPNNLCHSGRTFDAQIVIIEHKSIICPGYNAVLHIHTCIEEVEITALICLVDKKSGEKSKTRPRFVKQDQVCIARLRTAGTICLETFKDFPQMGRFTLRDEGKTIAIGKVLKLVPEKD
T6 sequence (Q96SW2 whole entry): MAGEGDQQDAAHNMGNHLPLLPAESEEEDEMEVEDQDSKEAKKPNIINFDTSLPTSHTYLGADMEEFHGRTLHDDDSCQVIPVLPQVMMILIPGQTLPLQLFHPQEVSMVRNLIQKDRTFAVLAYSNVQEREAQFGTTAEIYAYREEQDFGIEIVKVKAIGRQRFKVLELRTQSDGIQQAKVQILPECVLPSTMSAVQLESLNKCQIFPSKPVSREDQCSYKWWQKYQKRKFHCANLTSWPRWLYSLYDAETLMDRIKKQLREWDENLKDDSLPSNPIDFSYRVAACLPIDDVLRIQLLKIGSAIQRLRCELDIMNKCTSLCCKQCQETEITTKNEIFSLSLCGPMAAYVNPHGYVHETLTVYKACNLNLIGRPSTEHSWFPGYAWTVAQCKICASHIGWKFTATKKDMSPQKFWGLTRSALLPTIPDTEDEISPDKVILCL
T6 sequence (Q16531 whole entry partner): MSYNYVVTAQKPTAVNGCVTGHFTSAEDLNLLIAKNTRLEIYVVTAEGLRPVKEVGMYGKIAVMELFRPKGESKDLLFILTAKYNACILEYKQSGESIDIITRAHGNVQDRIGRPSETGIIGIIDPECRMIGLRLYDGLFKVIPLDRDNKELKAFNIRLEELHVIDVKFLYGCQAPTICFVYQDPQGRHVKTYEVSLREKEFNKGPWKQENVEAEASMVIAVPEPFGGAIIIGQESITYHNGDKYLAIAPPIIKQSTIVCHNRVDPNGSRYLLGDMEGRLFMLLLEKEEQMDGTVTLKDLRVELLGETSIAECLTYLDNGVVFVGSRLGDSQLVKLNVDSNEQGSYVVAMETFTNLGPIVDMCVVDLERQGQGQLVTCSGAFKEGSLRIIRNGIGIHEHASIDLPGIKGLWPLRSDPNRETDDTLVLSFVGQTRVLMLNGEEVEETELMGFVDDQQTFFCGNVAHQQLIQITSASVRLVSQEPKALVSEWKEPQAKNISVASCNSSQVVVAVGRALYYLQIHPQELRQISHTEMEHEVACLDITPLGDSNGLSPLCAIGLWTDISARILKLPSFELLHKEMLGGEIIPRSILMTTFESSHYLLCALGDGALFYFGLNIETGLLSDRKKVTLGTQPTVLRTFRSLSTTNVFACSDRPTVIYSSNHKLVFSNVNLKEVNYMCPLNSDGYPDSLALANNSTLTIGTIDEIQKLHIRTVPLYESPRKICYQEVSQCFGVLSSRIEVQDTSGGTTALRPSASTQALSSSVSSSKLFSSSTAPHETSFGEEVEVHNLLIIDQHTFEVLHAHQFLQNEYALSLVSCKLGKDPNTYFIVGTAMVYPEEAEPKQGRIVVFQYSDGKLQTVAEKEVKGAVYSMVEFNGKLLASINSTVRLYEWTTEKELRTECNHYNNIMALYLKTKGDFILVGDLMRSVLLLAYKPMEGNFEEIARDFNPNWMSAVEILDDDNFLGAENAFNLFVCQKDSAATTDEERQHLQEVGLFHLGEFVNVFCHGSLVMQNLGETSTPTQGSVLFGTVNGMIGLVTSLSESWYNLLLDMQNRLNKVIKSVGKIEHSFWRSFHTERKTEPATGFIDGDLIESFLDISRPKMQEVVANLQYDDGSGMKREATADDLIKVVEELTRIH
T2 sequence (Q13422 whole entry): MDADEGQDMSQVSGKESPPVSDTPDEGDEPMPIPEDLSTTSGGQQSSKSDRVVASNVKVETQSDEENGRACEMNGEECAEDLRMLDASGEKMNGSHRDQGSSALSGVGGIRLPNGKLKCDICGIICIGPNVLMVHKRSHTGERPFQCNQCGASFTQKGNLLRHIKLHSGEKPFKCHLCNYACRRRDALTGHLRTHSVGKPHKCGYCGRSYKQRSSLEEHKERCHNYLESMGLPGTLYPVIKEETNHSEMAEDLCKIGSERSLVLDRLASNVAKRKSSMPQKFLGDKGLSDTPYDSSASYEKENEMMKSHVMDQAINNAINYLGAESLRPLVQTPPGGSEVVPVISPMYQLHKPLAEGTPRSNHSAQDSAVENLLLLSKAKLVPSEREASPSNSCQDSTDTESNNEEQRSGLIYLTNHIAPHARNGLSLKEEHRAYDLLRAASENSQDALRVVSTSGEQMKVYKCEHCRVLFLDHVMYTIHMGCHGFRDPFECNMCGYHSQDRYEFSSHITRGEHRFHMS
T2 sequence (Q96SW2 whole entry): as the sequence (Q96SW2 whole entry) above
T2 sequence (Q16531 whole entry partner): as the sequence (Q16531 whole entry partner) above
T1 sequence (P30291 whole entry): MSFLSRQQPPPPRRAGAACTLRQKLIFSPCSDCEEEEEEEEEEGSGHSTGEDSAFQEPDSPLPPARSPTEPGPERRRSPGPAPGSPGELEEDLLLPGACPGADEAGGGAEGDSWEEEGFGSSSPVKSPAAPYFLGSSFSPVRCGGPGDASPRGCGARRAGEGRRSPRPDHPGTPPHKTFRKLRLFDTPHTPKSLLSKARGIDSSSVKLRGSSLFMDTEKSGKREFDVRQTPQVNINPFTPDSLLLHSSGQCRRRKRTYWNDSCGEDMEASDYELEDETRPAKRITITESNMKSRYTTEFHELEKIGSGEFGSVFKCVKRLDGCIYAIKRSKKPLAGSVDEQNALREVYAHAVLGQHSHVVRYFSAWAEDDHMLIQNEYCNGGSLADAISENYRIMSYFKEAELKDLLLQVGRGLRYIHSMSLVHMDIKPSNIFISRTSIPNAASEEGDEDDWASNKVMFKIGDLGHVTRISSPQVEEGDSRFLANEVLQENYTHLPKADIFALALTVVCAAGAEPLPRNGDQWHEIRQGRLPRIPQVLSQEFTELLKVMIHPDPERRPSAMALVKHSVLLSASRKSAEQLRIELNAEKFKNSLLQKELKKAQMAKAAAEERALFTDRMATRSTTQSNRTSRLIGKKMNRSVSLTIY
T1 sequence (Q96SW2 whole entry): as the sequence (Q96SW2 whole entry) above
T1 sequence (Q16531 whole entry partner): as the sequence (Q16531 whole entry partner) above
T5 sequence (P48729 whole entry): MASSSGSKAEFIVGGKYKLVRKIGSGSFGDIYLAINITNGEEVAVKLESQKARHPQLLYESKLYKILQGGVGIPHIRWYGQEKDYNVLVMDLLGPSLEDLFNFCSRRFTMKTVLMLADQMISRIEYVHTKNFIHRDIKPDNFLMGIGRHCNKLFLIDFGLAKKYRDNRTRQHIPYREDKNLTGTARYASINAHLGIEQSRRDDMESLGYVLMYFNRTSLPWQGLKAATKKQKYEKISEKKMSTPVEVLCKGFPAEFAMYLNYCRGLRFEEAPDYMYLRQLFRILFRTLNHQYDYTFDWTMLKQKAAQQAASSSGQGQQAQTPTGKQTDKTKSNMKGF
T5 sequence (Q96SW2 whole entry): as the sequence (Q96SW2 whole entry) above
T5 sequence (Q16531 whole entry partner): as the sequence (Q16531 whole entry partner) above
T3 sequence (Q9UKS7 whole entry): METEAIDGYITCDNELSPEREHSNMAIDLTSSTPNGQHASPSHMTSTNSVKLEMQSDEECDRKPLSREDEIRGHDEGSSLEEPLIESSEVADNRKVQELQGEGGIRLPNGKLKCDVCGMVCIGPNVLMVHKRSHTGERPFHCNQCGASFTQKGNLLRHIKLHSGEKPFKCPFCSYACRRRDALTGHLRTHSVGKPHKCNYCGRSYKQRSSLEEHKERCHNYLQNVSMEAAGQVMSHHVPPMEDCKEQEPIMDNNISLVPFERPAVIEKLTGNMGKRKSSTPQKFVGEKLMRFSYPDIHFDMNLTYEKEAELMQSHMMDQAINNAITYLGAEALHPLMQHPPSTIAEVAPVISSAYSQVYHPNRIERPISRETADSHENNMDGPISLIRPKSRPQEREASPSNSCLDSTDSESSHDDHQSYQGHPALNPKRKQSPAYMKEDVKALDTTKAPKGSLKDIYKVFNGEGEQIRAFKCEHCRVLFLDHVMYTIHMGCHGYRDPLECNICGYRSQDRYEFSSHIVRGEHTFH
T3 sequence (Q96SW2 whole entry): as the sequence (Q96SW2 whole entry) above
T3 sequence (Q16531 whole entry partner): as the sequence (Q16531 whole entry partner) above

| Structure (SMILES) | WEE1 substrate protein remaining % (WEE1) | IKZF1 substrate protein remaining % (IKZF1) | IKZF2 substrate protein remaining % (IKZF2) | IKZF3 substrate protein remaining % (IKZF3) | CK1α substrate protein remaining % (CK1α) | GSPT1 substrate protein remaining % (GSPT1) |
| --- | --- | --- | --- | --- | --- | --- |
| O=C1CCN(N2Cc3cc(CN4CCN(C(c5ccccc5)c5ccncc5)CC4)ccc3C2=O)C(=O)N1 (stereo not drawn) [GT-04891, 1-(1-oxo-5-((4-(phenyl(pyridin-4-yl)methyl)piperazin-1-yl)methyl)isoindolin-2-yl)dihydropyrimidine-2,4(1H,3H)-dione] | B ("B" is defined as 80%< substrate protein remaining %≤ 100%) | A ("A" is defined as 0% ≤ substrate protein remaining % ≤ 80%) | A ("A" is defined as 0% ≤ substrate protein remaining % ≤ 80%) | B ("B" is defined as 80%< substrate protein remaining %≤ 100%) | B ("B" is defined as 80%< substrate protein remaining %≤ 100%) | A ("A" is defined as 0% ≤ substrate protein remaining % ≤ 80%) |
| O=C1CCN(N2Cc3cc(CN4CCN(C(c5ccc(Cl)cc5)c5ccc(Cl)cc5)CC4)ccc3C2=O)C(=O)N1 [GT-04895, 1-(5-((4-(bis(4-chlorophenyl)methyl)piperazin-1-yl)methyl)-1-oxoisoindolin-2-yl)dihydropyrimidine-2,4(1H,3H)-dione] | B ("B" is defined as 80%< substrate protein remaining %≤ 100%) | A ("A" is defined as 0% ≤ substrate protein remaining % ≤ 80%) | A ("A" is defined as 0% ≤ substrate protein remaining % ≤ 80%) | B ("B" is defined as 80%< substrate protein remaining %≤ 100%) | B ("B" is defined as 80%< substrate protein remaining %≤ 100%) | A ("A" is defined as 0% ≤ substrate protein remaining % ≤ 80%) |
| O=C1CCN(N2Cc3cc(CN4C[C@@H]5C[C@H]4CN5C(c4ccccc4)c4ccccc4)ccc3C2=O)C(=O)N1 [GT-04938, 1-(5-(((1S,4S)-5-benzhydryl-2,5-diazabicyclo[2.2.1]heptan-2-yl)methyl)-1-oxoisoindolin-2-yl)dihydropyrimidine-2,4(1H,3H)-dione] | A ("A" is defined as 0% ≤ substrate protein remaining % ≤ 80%) | B ("B" is defined as 80%< substrate protein remaining %≤ 100%) | A ("A" is defined as 0% ≤ substrate protein remaining % ≤ 80%) | B ("B" is defined as 80%< substrate protein remaining %≤ 100%) | B ("B" is defined as 80%< substrate protein remaining %≤ 100%) | A ("A" is defined as 0% ≤ substrate protein remaining % ≤ 80%) |
| Cc1ccc(N2CCN(Cc3ccc4c(c3)CN(N3CCC(=O)NC3=O)C4=O)CC2)s1 [GT-05083, 1-(5-((4-(5-methylthiophen-2-yl)piperazin-1-yl)methyl)-1-oxoisoindolin-2-yl)dihydropyrimidine-2,4(1H,3H)-dione] | B ("B" is defined as 80%< substrate protein remaining %≤ 100%) | B ("B" is defined as 80%< substrate protein remaining %≤ 100%) | A ("A" is defined as 0% ≤ substrate protein remaining % ≤ 80%) | B ("B" is defined as 80%< substrate protein remaining %≤ 100%) | B ("B" is defined as 80%< substrate protein remaining %≤ 100%) | B ("B" is defined as 80%< substrate protein remaining %≤ 100%) |
| Cc1ccsc1N1CCN(Cc2ccc3c(c2)CN(N2CCC(=O)NC2=O)C3=O)CC1 [GT-05084, 1-(5-((4-(3-methylthiophen-2-yl)piperazin-1-yl)methyl)-1-oxoisoindolin-2-yl)dihydropyrimidine-2,4(1H,3H)-dione] | B ("B" is defined as 80%< substrate protein remaining %≤ 100%) | B ("B" is defined as 80%< substrate protein remaining %≤ 100%) | A ("A" is defined as 0% ≤ substrate protein remaining % ≤ 80%) | B ("B" is defined as 80%< substrate protein remaining %≤ 100%) | B ("B" is defined as 80%< substrate protein remaining %≤ 100%) | B ("B" is defined as 80%< substrate protein remaining %≤ 100%) |
| Cc1cc(N2CCN(Cc3ccc4c(c3)CN(N3CCC(=O)NC3=O)C4=O)CC2)cs1 [GT-05087, 1-(5-((4-(5-methylthiophen-3-yl)piperazin-1-yl)methyl)-1-oxoisoindolin-2-yl)dihydropyrimidine-2,4(1H,3H)-dione] | B ("B" is defined as 80%< substrate protein remaining %≤ 100%) | B ("B" is defined as 80%< substrate protein remaining %≤ 100%) | B ("B" is defined as 80%< substrate protein remaining %≤ 100%) | B ("B" is defined as 80%< substrate protein remaining %≤ 100%) | B ("B" is defined as 80%< substrate protein remaining %≤ 100%) | A ("A" is defined as 0% ≤ substrate protein remaining % ≤ 80%) |
| Cc1cccc(N2CCN(Cc3ccc4c(c3)CN(N3CCC(=O)NC3=O)C4=O)CC2)n1 [GT-05125, 1-(5-((4-(6-methylpyridin-2-yl)piperazin-1-yl)methyl)-1-oxoisoindolin-2-yl)dihydropyrimidine-2,4(1H,3H)-dione] | A ("A" is defined as 0% ≤ substrate protein remaining % ≤ 80%) | A ("A" is defined as 0% ≤ substrate protein remaining % ≤ 80%) | B ("B" is defined as 80%< substrate protein remaining %≤ 100%) | A ("A" is defined as 0% ≤ substrate protein remaining % ≤ 80%) | A ("A" is defined as 0% ≤ substrate protein remaining % ≤ 80%) | A ("A" is defined as 0% ≤ substrate protein remaining % ≤ 80%) |
| O=C1CCN(N2Cc3cc(CN4CCN(c5cc(Cl)ccn5)CC4)ccc3C2=O)C(=O)N1 [GT-05128, 1-(5-((4-(4-chloropyridin-2-yl)piperazin-1-yl)methyl)-1-oxoisoindolin-2-yl)dihydropyrimidine-2,4(1H,3H)-dione] | A ("A" is defined as 0% ≤ substrate protein remaining % ≤ 80%) | A ("A" is defined as 0% ≤ substrate protein remaining % ≤ 80%) | A ("A" is defined as 0% ≤ substrate protein remaining % ≤ 80%) | A ("A" is defined as 0% ≤ substrate protein remaining % ≤ 80%) | A ("A" is defined as 0% ≤ substrate protein remaining % ≤ 80%) | A ("A" is defined as 0% ≤ substrate protein remaining % ≤ 80%) |
| O=C1CCN(N2Cc3cc(CN4CCN(c5ncccc5F)CC4)ccc3C2=O)C(=O)N1 [GT-05129, 1-(5-((4-(3-fluoropyridin-2-yl)piperazin-1-yl)methyl)-1-oxoisoindolin-2-yl)dihydropyrimidine-2,4(1H,3H)-dione] | A ("A" is defined as 0% ≤ substrate protein remaining % ≤ 80%) | A ("A" is defined as 0% ≤ substrate protein remaining % ≤ 80%) | A ("A" is defined as 0% ≤ substrate protein remaining % ≤ 80%) | A ("A" is defined as 0% ≤ substrate protein remaining % ≤ 80%) | A ("A" is defined as 0% ≤ substrate protein remaining % ≤ 80%) | A ("A" is defined as 0% ≤ substrate protein remaining % ≤ 80%) |
| O=C1CCN(N2Cc3cc(CN4CCN(c5cccc(F)n5)CC4)ccc3C2=O)C(=O)N1 [GT-05130, 1-(5-((4-(6-fluoropyridin-2-yl)piperazin-1-yl)methyl)-1-oxoisoindolin-2-yl)dihydropyrimidine-2,4(1H,3H)-dione] | A ("A" is defined as 0% ≤ substrate protein remaining % ≤ 80%) | A ("A" is defined as 0% ≤ substrate protein remaining % ≤ 80%) | A ("A" is defined as 0% ≤ substrate protein remaining % ≤ 80%) | A ("A" is defined as 0% ≤ substrate protein remaining % ≤ 80%) | A ("A" is defined as 0% ≤ substrate protein remaining % ≤ 80%) | A ("A" is defined as 0% ≤ substrate protein remaining % ≤ 80%) |
